Test system: patients with cGVHD
Conditions: Cohort 1 200 mg QD

CC(C)NC(=O)COc1cccc(-c2nc(Nc3ccc4[nH]ncc4c3)c3ccccc3n2)c1 [Belumosudil, 2-{3-[4-(1H-indazol-5-ylamino)-2-quinazolinyl]phenoxy}-N-(propan-2-yl) acetamide]
Abdominal distension: # Events: 1 | Abdominal distension: Affected/At Risk (%): 1/17 (5.88%) | Abdominal pain upper: # Events: 1 | Abdominal pain upper: Affected/At Risk (%): 1/17 (5.88%) | Abdominal pain: # Events: 2 | Abdominal pain: Affected/At Risk (%): 2/17 (11.76%) | Actinic keratosis: # Events: 0 | Actinic keratosis: Affected/At Risk (%): 0/17 (0%) | Acute kidney injury: # Events: 4 | Acute kidney injury: Affected/At Risk (%): 1/17 (5.88%) | Acute respiratory distress syndrome: # Events: 1 | Acute respiratory distress syndrome: Affected/At Risk (%): 1/17 (5.88%) | Adrenal insufficiency: # Events: 2 | Adrenal insufficiency: Affected/At Risk (%): 1/17 (5.88%) | Alanine aminotransferase increased: # Events: 12 | Alanine aminotransferase increased: Affected/At Risk (%): 6/17 (35.29%) | All grade ALT/AST increased, No. (%): 11 (65) | All grade Cough, No. (%): 1 (6) | All grade Diarrhea, No. (%): 6 (35) | All grade Dyspnea, No. (%): 3 (18) | All grade Fatigue, No. (%): 6 (35) | All grade Headache, No. (%): 4 (24) | All grade Hypertension, No. (%): 5 (29) | All grade Nausea, No. (%): 6 (35) | All grade Peripheral edema, No. (%): 3 (18) | All grade URI, No. (%): 9 (53) | All-Cause Mortality, %: (11.76%) | All-Cause Mortality, Affected/At Risk: 2/17 | Anaemia: # Events: 14 | Anaemia: Affected/At Risk (%): 5/17 (29.41%) | Anal incontinence: # Events: 2 | Anal incontinence: Affected/At Risk (%): 1/17 (5.88%) | Anxiety: # Events: 1 | Anxiety: Affected/At Risk (%): 1/17 (5.88%) | Any AE, No. (%): 17 (100) | Arthralgia: # Events: 1 | Arthralgia: Affected/At Risk (%): 1/17 (5.88%) | Aspartate aminotransferase increased: # Events: 8 | Aspartate aminotransferase increased: Affected/At Risk (%): 5/17 (29.41%) | Asthenia: # Events: 0 | Asthenia: Affected/At Risk (%): 0/17 (0%) | Atelectasis: # Events: 1 | Atelectasis: Affected/At Risk (%): 1/17 (5.88%) | Back pain: # Events: 0 | Back pain: Affected/At Risk (%): 0/17 (0%) | Balance disorder: # Events: 0 | Balance disorder: Affected/At Risk (%): 0/17 (0%) | Basal cell carcinoma: # Events: 0 | Basal cell carcinoma: Affected/At Risk (%): 0/17 (0%) | Benign prostatic hyperplasia: # Events: 1 | Benign prostatic hyperplasia: Affected/At Risk (%): 1/17 (5.88%) | Blepharitis: # Events: 1 | Blepharitis: Affected/At Risk (%): 1/17 (5.88%) | Blister: # Events: 0 | Blister: Affected/At Risk (%): 0/17 (0%) | Blood alkaline phosphatase increased: # Events: 6 | Blood alkaline phosphatase increased: Affected/At Risk (%): 4/17 (23.53%) | Blood chloride decreased: # Events: 0 | Blood chloride decreased: Affected/At Risk (%): 0/17 (0%) | Blood cholesterol increased: # Events: 2 | Blood cholesterol increased: Affected/At Risk (%): 1/17 (5.88%) | Blood creatine increased: # Events: 0 | Blood creatine increased: Affected/At Risk (%): 0/17 (0%) | Blood creatine phosphokinase increased: # Events: 1 | Blood creatine phosphokinase increased: Affected/At Risk (%): 1/17 (5.88%) | Blood creatinine increased: # Events: 1 | Blood creatinine increased: Affected/At Risk (%): 1/17 (5.88%) | Blood loss anaemia: # Events: 1 | Blood loss anaemia: Affected/At Risk (%): 1/17 (5.88%) | Bronchial secretion retention: # Events: 0 | Bronchial secretion retention: Affected/At Risk (%): 0/17 (0%) | Bronchitis: # Events: 1 | Bronchitis: Affected/At Risk (%): 1/17 (5.88%) | Bronchoscopy: # Events: 1 | Bronchoscopy: Affected/At Risk (%): 1/17 (5.88%) | Catheter site haemorrhage: # Events: 1 | Catheter site haemorrhage: Affected/At Risk (%): 1/17 (5.88%) | Chills: # Events: 1 | Chills: Affected/At Risk (%): 1/17 (5.88%) | Chronic kidney disease: # Events: 1 | Chronic kidney disease: Affected/At Risk (%): 1/17 (5.88%) | Conjunctival haemorrhage: # Events: 0 | Conjunctival haemorrhage: Affected/At Risk (%): 0/17 (0%) | Conjunctivitis: # Events: 0 | Conjunctivitis: Affected/At Risk (%): 0/17 (0%) | Constipation: # Events: 1 | Constipation: Affected/At Risk (%): 1/17 (5.88%) | Contrast media allergy: # Events: 0 | Contrast media allergy: Affected/At Risk (%): 0/17 (0%) | Contusion: # Events: 2 | Contusion: Affected/At Risk (%): 2/17 (11.76%) | Corneal abrasion: # Events: 1 | Corneal abrasion: Affected/At Risk (%): 1/17 (5.88%) | Corneal infection: # Events: 0 | Corneal infection: Affected/At Risk (%): 0/17 (0%) | Cough: # Events: 1 | Cough: Affected/At Risk (%): 1/17 (5.88%) | Death, No. (%): 0 | Decreased appetite: # Events: 4 | Decreased appetite: Affected/At Risk (%): 2/17 (11.76%) | Dehydration: # Events: 2 | Dehydration: Affected/At Risk (%): 2/17 (11.76%) | Depression: # Events: 0 | Depression: Affected/At Risk (%): 0/17 (0%) | Diarrhoea: # Events: 9 | Diarrhoea: Affected/At Risk (%): 6/17 (35.29%) | Dizziness: # Events: 0 | Dizziness: Affected/At Risk (%): 0/17 (0%) | Drug eruption: # Events: 0 | Drug eruption: Affected/At Risk (%): 0/17 (0%) | Drug-related AE, No. (%): 8 (47) | Drug-related SAE, No. (%): 0 | Dry eye: # Events: 3 | Dry eye: Affected/At Risk (%): 2/17 (11.76%) | Dry skin: # Events: 1 | Dry skin: Affected/At Risk (%): 1/17 (5.88%) | Dyspepsia: # Events: 0 | Dyspepsia: Affected/At Risk (%): 0/17 (0%) | Dysphagia: # Events: 1 | Dysphagia: Affected/At Risk (%): 1/17 (5.88%) | Dyspnoea exertional: # Events: 1 | Dyspnoea exertional: Affected/At Risk (%): 1/17 (5.88%) | Dyspnoea: # Events: 2 | Dyspnoea: Affected/At Risk (%): 2/17 (11.76%) | Embolism: # Events: 1 | Embolism: Affected/At Risk (%): 1/17 (5.88%) | Enamel anomaly: # Events: 0 | Enamel anomaly: Affected/At Risk (%): 0/17 (0%) | Epidural lipomatosis: # Events: 1 | Epidural lipomatosis: Affected/At Risk (%): 1/17 (5.88%) | Epstein-Barr virus infection: # Events: 1 | Epstein-Barr virus infection: Affected/At Risk (%): 1/17 (5.88%) | Erectile dysfunction: # Events: 4 | Erectile dysfunction: Affected/At Risk (%): 2/17 (11.76%) | Eye irritation: # Events: 1 | Eye irritation: Affected/At Risk (%): 1/17 (5.88%) | Eye pain: # Events: 0 | Eye pain: Affected/At Risk (%): 0/17 (0%) | Eye pruritus: # Events: 0 | Eye pruritus: Affected/At Risk (%): 0/17 (0%) | Fall: # Events: 2 | Fall: Affected/At Risk (%): 2/17 (11.76%) | Fatigue: # Events: 7 | Fatigue: Affected/At Risk (%): 6/17 (35.29%) | Flatulence: # Events: 0 | Flatulence: Affected/At Risk (%): 0/17 (0%) | Flushing: # Events: 0 | Flushing: Affected/At Risk (%): 0/17 (0%) | Fungal infection: # Events: 1 | Fungal infection: Affected/At Risk (%): 1/17 (5.88%) | Gamma-glutamyltransferase increased: # Events: 9 | Gamma-glutamyltransferase increased: Affected/At Risk (%): 4/17 (23.53%) | Gastric ulcer: # Events: 0 | Gastric ulcer: Affected/At Risk (%): 0/17 (0%) | Gastrooesophageal reflux disease: # Events: 2 | Gastrooesophageal reflux disease: Affected/At Risk (%): 2/17 (11.76%) | Generalised oedema: # Events: 1 | Generalised oedema: Affected/At Risk (%): 1/17 (5.88%) | Genital infection fungal: # Events: 0 | Genital infection fungal: Affected/At Risk (%): 0/17 (0%) | Glaucoma: # Events: 0 | Glucose urine present: # Events: 3 | Glucose urine present: Affected/At Risk (%): 2/17 (11.76%) | Grade ≥3 AE, No. (%): 9 (53) | Grade ≥3 ALT/AST increased, No. (%): 2 (12) | Grade ≥3 Anemia, No. (%): 2 (12) | Grade ≥3 Dyspnea, No. (%): 1 (6) | Grade ≥3 Hyperglycemia, No. (%): 2 (12) | Grade ≥3 Hypoxia, No. (%): 1 (6)

Source: patent US20260027116A1, “Methods of Treating Chronic Graft-Versus-Host Disease Following Allogeneic Hematopoietic Stem Cell Transplantation” (Kadmon Corporation, LLC, priority 2022, published 2026)
